Measured values from paper PMC3985615 (Journal of medicinal chemistry, 2013).

How the values were obtained:
Trap-1 [1] = molecular target: T1, Trap-1 (Homo sapiens, UniProt Q12931); conditions: from FP competition IC50, Table 1
T1 sequence (Q12931 60-704): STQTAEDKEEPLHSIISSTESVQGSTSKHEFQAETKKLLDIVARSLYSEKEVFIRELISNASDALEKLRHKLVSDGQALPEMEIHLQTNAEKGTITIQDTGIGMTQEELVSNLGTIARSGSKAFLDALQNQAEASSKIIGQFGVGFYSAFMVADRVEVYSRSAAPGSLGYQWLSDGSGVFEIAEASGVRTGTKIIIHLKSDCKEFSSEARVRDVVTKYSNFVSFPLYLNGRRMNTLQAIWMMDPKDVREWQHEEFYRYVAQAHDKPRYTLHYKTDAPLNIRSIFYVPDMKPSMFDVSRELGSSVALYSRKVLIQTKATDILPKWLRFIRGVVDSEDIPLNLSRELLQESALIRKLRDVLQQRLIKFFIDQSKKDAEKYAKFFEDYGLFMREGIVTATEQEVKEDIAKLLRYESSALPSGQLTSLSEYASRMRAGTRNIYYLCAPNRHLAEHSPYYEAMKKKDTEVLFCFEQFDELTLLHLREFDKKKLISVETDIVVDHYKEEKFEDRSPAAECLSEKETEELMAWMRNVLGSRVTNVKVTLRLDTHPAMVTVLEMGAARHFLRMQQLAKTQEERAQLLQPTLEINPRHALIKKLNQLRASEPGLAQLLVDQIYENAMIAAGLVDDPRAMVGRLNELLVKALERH

Trap-1 [2] = conditions: cited from earlier work
Grp94 = Grp94 (Canis lupus familiaris, UniProt P41148); test: FP saturation binding assay of probes, Grp94; parameters: species or system canine; conditions: for assay window, Grp94: mP at saturation minus mP of probe alone
Grp94, sequence (P41148 22-804): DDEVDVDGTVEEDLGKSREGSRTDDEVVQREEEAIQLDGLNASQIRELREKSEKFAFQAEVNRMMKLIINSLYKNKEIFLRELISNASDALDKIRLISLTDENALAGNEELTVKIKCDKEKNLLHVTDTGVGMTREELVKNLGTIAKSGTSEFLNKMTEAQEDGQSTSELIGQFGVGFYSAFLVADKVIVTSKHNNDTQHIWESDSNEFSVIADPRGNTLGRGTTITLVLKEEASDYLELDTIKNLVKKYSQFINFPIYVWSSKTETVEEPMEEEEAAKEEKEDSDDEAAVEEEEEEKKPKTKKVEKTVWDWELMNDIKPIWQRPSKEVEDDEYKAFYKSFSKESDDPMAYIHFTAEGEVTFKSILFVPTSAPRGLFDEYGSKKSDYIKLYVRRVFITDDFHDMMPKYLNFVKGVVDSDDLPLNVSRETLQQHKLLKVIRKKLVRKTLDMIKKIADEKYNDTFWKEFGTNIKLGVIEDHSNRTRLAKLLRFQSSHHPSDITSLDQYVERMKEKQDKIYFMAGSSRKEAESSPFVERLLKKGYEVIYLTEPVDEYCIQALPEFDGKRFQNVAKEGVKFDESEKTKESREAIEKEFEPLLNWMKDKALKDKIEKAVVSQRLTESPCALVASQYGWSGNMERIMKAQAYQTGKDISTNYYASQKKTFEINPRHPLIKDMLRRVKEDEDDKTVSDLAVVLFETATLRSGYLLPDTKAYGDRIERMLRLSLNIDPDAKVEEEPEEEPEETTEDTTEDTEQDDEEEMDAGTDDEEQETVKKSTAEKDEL

Hsp90α = Hsp90α (Homo sapiens, UniProt P07900); test: FP saturation binding assay of probes, Hsp90α; conditions: mP at saturation minus mP of probe alone
Hsp90 in SKBr3 lysate = test: FP saturation binding of probes to Hsp90 in cancer cell lysate; parameters: species or system human; conditions: 4 °C
Hsp90β = Hsp90β (Homo sapiens, UniProt P08238); test: FP saturation binding assay of probes, Hsp90β; conditions: mP at saturation minus mP of probe alone
Hsp90β, sequence (P08238 whole entry): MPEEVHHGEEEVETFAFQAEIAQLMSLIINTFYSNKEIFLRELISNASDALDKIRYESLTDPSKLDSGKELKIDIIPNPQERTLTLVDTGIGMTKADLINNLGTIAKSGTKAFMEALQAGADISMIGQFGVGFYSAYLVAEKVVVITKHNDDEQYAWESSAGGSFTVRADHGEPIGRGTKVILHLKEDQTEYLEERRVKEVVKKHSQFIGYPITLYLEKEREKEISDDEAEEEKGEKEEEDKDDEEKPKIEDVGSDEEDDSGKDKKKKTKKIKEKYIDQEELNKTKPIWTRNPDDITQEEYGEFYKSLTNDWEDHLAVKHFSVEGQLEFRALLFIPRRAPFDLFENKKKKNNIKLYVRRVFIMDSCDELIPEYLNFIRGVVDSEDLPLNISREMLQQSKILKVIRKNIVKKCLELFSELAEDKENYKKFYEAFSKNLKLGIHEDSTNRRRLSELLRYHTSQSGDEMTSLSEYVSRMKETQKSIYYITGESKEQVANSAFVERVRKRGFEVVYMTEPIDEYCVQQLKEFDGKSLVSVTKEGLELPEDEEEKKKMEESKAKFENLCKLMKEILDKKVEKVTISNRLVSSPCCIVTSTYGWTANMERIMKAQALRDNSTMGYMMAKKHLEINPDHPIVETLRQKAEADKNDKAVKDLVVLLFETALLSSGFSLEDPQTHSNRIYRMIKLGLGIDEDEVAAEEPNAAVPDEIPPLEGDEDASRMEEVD

COc1c(C)cnc(Cn2cnc3c(Cl)nc(N)nc32)c1C [compound 3]
decrease in binding affinity for Trap-1 compared to Hsp90 (Trap-1 [1]): 5 fold

CN(C)c1cc2c(cc1Sc1nc3c(N)nccc3n1CCNCC(C)(C)C)OCO2 [compound 5]
decrease in binding affinity for Trap-1 compared to Hsp90 (Trap-1 [1]): 50 fold
loss of affinity for Trap-1 vs Hsp90 (Trap-1 [1]): ~2 log

COC1=C2C[C@@H](C)C[C@H](OC)[C@H](O)[C@@H](C)/C=C(\C)[C@H](OC(N)=O)[C@@H](OC)/C=C\C=C(/C)C(=O)NC(=CC1=O)C2=O [compound 1, Geldanamycin]
decrease in binding affinity for Trap-1 compared to Hsp90 (Trap-1 [1]): 25 fold

CC(C)NCCCn1c(Sc2cc3c(cc2I)OCO3)nc2c(N)ncnc21 [compound 4]
decrease in binding affinity for Trap-1 compared to Hsp90 (Trap-1 [1]): 5 fold

Nc1ncnc2c1ncn2[C@@H]1O[C@H](COP(=O)(O)OP(=O)(O)OP(=O)(O)O)[C@@H](O)[C@H]1O [ATP]
reported greater affinity of Trap-1 than of Hsp90 (Trap-1 [2]): approximately 10 fold
Kd (Trap-1 [2]; read-out: reported binding affinity for Trap-1): 34.3 µM

CC(C)N(CCCn1c(Sc2cc3c(cc2I)OCO3)nc2c(N)ncnc21)C(=S)Nc1ccc(-c2c3ccc(=O)cc-3oc3cc(O)ccc23)c(C(=O)O)c1 [compound 12]
preference for Hsp90α, Hsp90β and Trap-1 over Grp94 (Grp94; from apparent Kd, saturation binding): 1 log
assay window, Grp94 (Grp94): less than 100 mP

CCNC(=O)c1noc(-c2cc(C(C)C)c(O)cc2O)c1-c1ccc(CN2CCOCC2)cc1 [compound 7]
decrease in binding affinity for Trap-1 compared to Hsp90 (Trap-1 [1]): 2 fold

Nc1ncnc2c1nc(Sc1cc3c(cc1I)OCO3)n2CCCNC(=S)Nc1ccc(-c2c3ccc(=O)cc-3oc3cc(O)ccc23)c(C(=O)O)c1 [16a]
assay window, Grp94 (Grp94): > 150 mP
assay window, Hsp90α (Hsp90α): > 150 mP
time binding remained stable (Hsp90 in SKBr3 lysate): more than 24 h
time to reach binding equilibrium with Hsp90 (Hsp90 in SKBr3 lysate): ≤ 8 h
assay window, Hsp90β (Hsp90β): > 150 mP

C=CCNC1=C2C[C@@H](C)C[C@H](OC)[C@H](O)[C@@H](C)/C=C(\C)[C@H](OC(N)=O)[C@@H](OC)/C=C\C=C(/C)C(=O)NC(=CC1=O)C2=O [compound 2, 17-allyl-17-demethoxygeldanamycin]
loss of affinity for Trap-1 vs Hsp90 (Trap-1 [1]): ~2 log
